The source of these data is patent publication US20160219829A1, “ANTI-ODOR MATERIAL FOR ANIMAL LITTERS USING PHOSPHOROTRIAMIDES IN POWDER FORM” (priority 2013, published 2016).

SMILES strings stand for the structures.

For the assay, the target named is T1, urease (Canavalia ensiformis, UniProt P07374).
T1 construct: purchased Sigma
It counts as biochemical. As to the method:
To simulate soiled anti-odor material, urea/urease solution was prepared and added to the anti-odor material.
In the same beaker, weight 50 g of demineralised water.
In a small plastic cup, weight 0.012 g of urease. Then empty the plastic cup in the beaker containing the water and rinse it with the water/urea solution.
Fill a standard volume with anti-odor material (litter+n-BTPT powder) and equalize the surface. Empty the standard volume in a plastic bowl used for analysis.
Empty slowly the urea/urease solution on the anti-odor material while making sure that no solution comes in contact with sides of the plastic bowl.
Put a cover on the plastic bowl (the cover having a hole).
Insert the tube of a Gastec pump (GV-100S) in the hole of the cover.
Note the start time of the test and take a reading of the tube every 30 minutes for the first 7 hours.
Take a reading at 24 and 48 hour.
Dosimetry tests were performed according to the methodology above. The results were taken after 48 h of testing.
Dosimetry tests were then realised to evaluate the performance of the litter samples by measuring the ammonia release (in ppm). More particularly, performances of the odor-retardant material with n-BTPT in a powder form, in melted phase or coating a particulate support could be evaluated.

T1 sequence (P07374 whole entry, looked up): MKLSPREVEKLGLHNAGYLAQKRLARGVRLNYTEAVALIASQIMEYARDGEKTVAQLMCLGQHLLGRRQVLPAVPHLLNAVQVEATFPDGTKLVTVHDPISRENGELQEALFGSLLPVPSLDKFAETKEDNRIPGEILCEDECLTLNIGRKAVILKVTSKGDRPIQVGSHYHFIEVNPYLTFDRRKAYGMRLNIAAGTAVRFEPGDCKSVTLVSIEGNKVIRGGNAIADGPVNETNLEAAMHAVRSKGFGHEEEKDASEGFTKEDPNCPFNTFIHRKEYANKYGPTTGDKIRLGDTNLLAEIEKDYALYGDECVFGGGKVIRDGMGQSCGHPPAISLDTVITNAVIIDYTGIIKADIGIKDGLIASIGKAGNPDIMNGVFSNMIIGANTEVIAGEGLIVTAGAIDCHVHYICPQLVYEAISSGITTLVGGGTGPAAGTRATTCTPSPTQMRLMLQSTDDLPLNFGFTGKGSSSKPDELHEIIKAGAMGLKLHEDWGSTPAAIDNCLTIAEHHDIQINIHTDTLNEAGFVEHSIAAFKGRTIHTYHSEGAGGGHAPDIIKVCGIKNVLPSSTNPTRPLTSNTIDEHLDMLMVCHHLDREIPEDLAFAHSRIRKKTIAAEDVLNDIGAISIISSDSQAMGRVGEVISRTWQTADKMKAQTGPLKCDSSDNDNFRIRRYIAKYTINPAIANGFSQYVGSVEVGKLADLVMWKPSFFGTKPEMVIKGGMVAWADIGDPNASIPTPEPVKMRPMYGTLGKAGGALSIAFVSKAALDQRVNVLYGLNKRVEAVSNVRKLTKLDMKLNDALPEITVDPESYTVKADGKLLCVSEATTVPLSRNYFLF

With `CCCCNP(N)(N)=S` [n-BTPT, N-(n-butyl)thiophosphoric triamide], the “Ammonia release (48 h)” value (final concentration 350 g/MT n-BTPT in litter, bentonite absorptive substrate) worked out at 25 ppm. Also, under “n-BTPT concentration of 0.03%, grinded powder in litter, 48 h”, the “ammonia release reaches a maximum (FIG. 1)” value came out at 62%.
